Test results taken from ChEMBL document CHEMBL2346512, “Inhibitory effect of 4,4'-dihydroxy-α-truxillic acid derivatives on NO production in lipopolysaccharide-induced RAW 264.7 macrophages and exploration of structure-activity relationships” (Bioorg Med Chem Lett, 2013).
pIC50: −log10 of the molar value.

Legend:
RAW264.7 [1] = test: Inhibition of LPS-induced NO production in mouse RAW264.7 cells at 25 uM pretreated for 20 mins before LPS challenge measured after 18 hrs post LPS challenge by spectrophotometry; type: functional
[2] = Cytotoxicity against mouse RAW264.7 cells assessed as cell viability at 25 uM after 18 hrs by CCK-8 assay; type: cell-based; conditions: read-out: Activity
RAW264.7 [3] = test: Inhibition of LPS-induced NO production in mouse RAW264.7 cells pretreated for 20 mins before LPS challenge measured after 18 hrs post LPS challenge by spectrophotometry; type: functional, cell-based
RAW264.7 [4] = test: Cytotoxicity against mouse RAW264.7 cells assessed as cell viability after 18 hrs by CCK-8 assay; type: cell-based; conditions: RAW264.7, 18 h
RAW264.7 [5] = test: Cytotoxicity against mouse RAW264.7 cells assessed as cell viability up to 50 uM after 18 hrs by CCK-8 assay; type: cell-based; conditions: raw264.7, 18 h
RAW264.7 [6] = test: Inhibition of LPS-induced NO production in mouse RAW264.7 cells at 12.5 uM pretreated for 20 mins before LPS challenge measured after 18 hrs post LPS challenge by spectrophotometry; type: functional
RAW264.7 [7] = test: Inhibition of LPS-induced NO production in mouse RAW264.7 cells at 100 uM pretreated for 20 mins before LPS challenge measured after 18 hrs post LPS challenge by spectrophotometry; type: functional
RAW264.7 [8] = test: Inhibition of LPS-induced NO production in mouse RAW264.7 cells at 50 uM pretreated for 20 mins before LPS challenge measured after 18 hrs post LPS challenge by spectrophotometry; type: functional

SMILES | inhibition at 25 µM (RAW264.7 [1]) [%] | viability at 18 h, 25 µM [2] [%] | further results
O=C(OCCC1CCCCC1)[C@H]1[C@H](c2ccc(O)cc2)[C@H](C(=O)OCCC2CCCCC2)[C@H]1c1ccc(O)cc1 | 19.1 | 100 | 
O=C(OC1CCCCC1)[C@H]1[C@H](c2ccc(O)cc2)[C@H](C(=O)OC2CCCCC2)[C@H]1c1ccc(O)cc1 | 76 | 67.8 | pIC50 (RAW264.7 [3]): 4.79; pIC50 (RAW264.7 [4]): 4.48
O=C(OC1CCCCCC1)[C@H]1[C@H](c2ccc(O)cc2)[C@H](C(=O)OC2CCCCCC2)[C@H]1c1ccc(O)cc1 | 16 | 100 | 
O=C(OCC1CCCO1)[C@H]1[C@H](c2ccc(O)cc2)[C@H](C(=O)OCC2CCCO2)[C@H]1c1ccc(O)cc1 (stereo not given in full) | 10.2 | 96 | 
O=C(OC1CCOCC1)[C@H]1[C@H](c2ccc(O)cc2)[C@H](C(=O)OC2CCOCC2)[C@H]1c1ccc(O)cc1 | 18 | 100 | 
CC(C)(C)C1CCC(OC(=O)[C@H]2[C@H](c3ccc(O)cc3)[C@H](C(=O)OC3CCC(C(C)(C)C)CC3)[C@H]2c2ccc(O)cc2)CC1 (stereo not given in full) | 0 | 100 | 
CC(C)[C@@H]1CC[C@@H](C)C[C@H]1OC(=O)[C@H]1[C@H](c2ccc(O)cc2)[C@H](C(=O)O[C@@H]2C[C@H](C)CC[C@H]2C(C)C)[C@H]1c1ccc(O)cc1 | 72 | 98 | Activity (RAW264.7 [5]): Non-toxic; pIC50 (RAW264.7 [3]): 4.76; pIC50 (RAW264.7 [4]): 4.22
CC(C)[C@H]1CC[C@H](C)C[C@@H]1OC(=O)[C@H]1[C@H](c2ccc(O)cc2)[C@H](C(=O)O[C@H]2C[C@@H](C)CC[C@@H]2C(C)C)[C@H]1c1ccc(O)cc1 | 17.4 | 90 | 
O=C(OCC1CCCCC1)[C@H]1[C@H](c2ccc(O)cc2)[C@H](C(=O)OCC2CCCCC2)[C@H]1c1ccc(O)cc1 | 46.9 | 37 | pIC50 (RAW264.7 [3]): 4.54; pIC50 (RAW264.7 [4]): 4.75
CCC[C@H]1CC[C@H]([C@H]2CC[C@H](OC(=O)[C@H]3[C@H](c4ccc(O)cc4)[C@H](C(=O)O[C@H]4CC[C@H]([C@H]5CC[C@H](CCC)CC5)CC4)[C@H]3c3ccc(O)cc3)CC2)CC1 | 0 | 100 | 
CCC[C@H]1CC[C@H]([C@H]2CC[C@@H](OC(=O)[C@H]3[C@H](c4ccc(O)cc4)[C@H](C(=O)O[C@H]4CC[C@@H]([C@H]5CC[C@H](CCC)CC5)CC4)[C@H]3c3ccc(O)cc3)CC2)CC1 | 0 | 100 | 
O=C(OCC12CC3CC(CC(C3)C1)C2)[C@H]1[C@H](c2ccc(O)cc2)[C@H](C(=O)OCC23CC4CC(CC(C4)C2)C3)[C@H]1c1ccc(O)cc1 | 27.8 | 98 | 
CC(C)OCCOC(=O)[C@H]1[C@H](c2ccc(O)cc2)[C@H](C(=O)OCCOC(C)C)[C@H]1c1ccc(O)cc1 | 22 | 100 | 
CCCOCCOC(=O)[C@H]1[C@H](c2ccc(O)cc2)[C@H](C(=O)OCCOCCC)[C@H]1c1ccc(O)cc1 | 23.6 | 100 | 
CCCCOCCOC(=O)[C@H]1[C@H](c2ccc(O)cc2)[C@H](C(=O)OCCOCCCC)[C@H]1c1ccc(O)cc1 | 45.8 | 95 | pIC50 (RAW264.7 [3]): 4.49; pIC50 (RAW264.7 [4]): 4.35
COCCOCCOC(=O)[C@H]1[C@H](c2ccc(O)cc2)[C@H](C(=O)OCCOCCOC)[C@H]1c1ccc(O)cc1 | 21.9 | 100 | 
COCCOCCOCCOC(=O)[C@H]1[C@H](c2ccc(O)cc2)[C@H](C(=O)OCCOCCOCCOC)[C@H]1c1ccc(O)cc1 | 11.9 | 100 | 
CCOCCOCCOCCOC(=O)[C@H]1[C@H](c2ccc(O)cc2)[C@H](C(=O)OCCOCCOCCOCC)[C@H]1c1ccc(O)cc1 | 15.7 | 100 | 
O=C(OCCF)[C@H]1[C@H](c2ccc(O)cc2)[C@H](C(=O)OCCF)[C@H]1c1ccc(O)cc1 | 13 | 100 | 

SMILES | inhibition at 25 µM (RAW264.7 [1]) [%] | viability at 18 h, 25 µM [2] [%] | further results
O=C(OCC(F)(F)F)[C@H]1[C@H](c2ccc(O)cc2)[C@H](C(=O)OCC(F)(F)F)[C@H]1c1ccc(O)cc1 | 65.3 | 78 | pIC50 (RAW264.7 [3]): 4.68; pIC50 (RAW264.7 [4]): 4.41
O=C(OCC(F)(F)C(F)F)[C@H]1[C@H](c2ccc(O)cc2)[C@H](C(=O)OCC(F)(F)C(F)F)[C@H]1c1ccc(O)cc1 | 15.7 | 100 | 
O=C(OC(C(F)(F)F)C(F)(F)F)[C@H]1[C@H](c2ccc(O)cc2)[C@H](C(=O)OC(C(F)(F)F)C(F)(F)F)[C@H]1c1ccc(O)cc1 | 55 | 32.6 | pIC50 (RAW264.7 [3]): 4.65; pIC50 (RAW264.7 [4]): 4.75
CSCCOC(=O)[C@H]1[C@H](c2ccc(O)cc2)[C@H](C(=O)OCCSC)[C@H]1c1ccc(O)cc1 | 24.4 | 100 | 
O=C(OCCI)[C@H]1[C@H](c2ccc(O)cc2)[C@H](C(=O)OCCI)[C@H]1c1ccc(O)cc1 | 49.9 | 98 | 
C=C(C)COC(=O)[C@H]1[C@H](c2ccc(O)cc2)[C@H](C(=O)OCC(=C)C)[C@H]1c1ccc(O)cc1 | 27.9 | 100 | 
CCC/C=C/COC(=O)[C@H]1[C@H](c2ccc(O)cc2)[C@H](C(=O)OC/C=C/CCC)[C@H]1c1ccc(O)cc1 | 72.3 | 40 | pIC50 (RAW264.7 [3]): 4.75; pIC50 (RAW264.7 [4]): 4.71
CC(C)=CCC/C(C)=C\COC(=O)[C@H]1[C@H](c2ccc(O)cc2)[C@H](C(=O)OC/C=C(/C)CCC=C(C)C)[C@H]1c1ccc(O)cc1 | 42.6 | 56 | 
CC(C)=CCC/C(C)=C/COC(=O)[C@H]1[C@H](c2ccc(O)cc2)[C@H](C(=O)OC/C=C(\C)CCC=C(C)C)[C@H]1c1ccc(O)cc1 | 33.9 | 80 | 
C=C(C)C1CC=C(COC(=O)[C@H]2[C@H](c3ccc(O)cc3)[C@H](C(=O)OCC3=CCC(C(=C)C)CC3)[C@H]2c2ccc(O)cc2)CC1 (stereo not given in full) | 36.1 | 78 | 
C#CCCOC(=O)[C@H]1[C@H](c2ccc(O)cc2)[C@H](C(=O)OCCC#C)[C@H]1c1ccc(O)cc1 | 28.3 | 100 | 
C#CCOCCOC(=O)[C@H]1[C@H](c2ccc(O)cc2)[C@H](C(=O)OCCOCC#C)[C@H]1c1ccc(O)cc1 | 13.5 | 100 | 
CC(C)(C)[Si](C)(C)Oc1ccc(/C=C/C(=O)O)cc1 | 0 |  | inhibition at 12.5 µM (RAW264.7 [6]): 0%; inhibition at 100 µM (RAW264.7 [7]): 6.5%; inhibition at 50 µM (RAW264.7 [8]): 2.2%
O=C(O)[C@H]1[C@H](c2ccc(O)cc2)[C@H](C(=O)O)[C@H]1c1ccc(O)cc1 | 5.5 | 100 | 
O=C(OCC1CC1)[C@H]1[C@H](c2ccc(O)cc2)[C@H](C(=O)OCC2CC2)[C@H]1c1ccc(O)cc1 | 33.9 | 95 | 
O=C(OC1CCC1)[C@H]1[C@H](c2ccc(O)cc2)[C@H](C(=O)OC2CCC2)[C@H]1c1ccc(O)cc1 | 55 | 62.6 | pIC50 (RAW264.7 [3]): 4.70; pIC50 (RAW264.7 [4]): 4.49
O=C(OC1CCCC1)[C@H]1[C@H](c2ccc(O)cc2)[C@H](C(=O)OC2CCCC2)[C@H]1c1ccc(O)cc1 | 62.1 | 58 | pIC50 (RAW264.7 [3]): 4.68; pIC50 (RAW264.7 [4]): 4.51
O=C(O)/C=C/c1ccc(O)cc1 [COUMARIC ACID] | 0 |  | inhibition at 12.5 µM (RAW264.7 [6]): 0%; inhibition at 100 µM (RAW264.7 [7]): 13.2%; inhibition at 50 µM (RAW264.7 [8]): 6.5%
N=C(N)NN [PIMAGEDINE] | 56 |  | pIC50 (RAW264.7 [3]): 4.73; inhibition at 50 µM (RAW264.7 [8]): 71%
